Experiment: RP, Thermo Scientific Acclaim RSLC 120 C18, 100 × 2.1 mm, 2.2 µm, 30 °C, 0.2 mL/min, estimated dead time 1.1 min; A: 90% water + 10% methanol + 0.01% formic acid + 5 mM ammonium formate, pH 3.61; B: methanol + 0.01% formic acid + 5 mM ammonium formate, pH 3.61; gradient (min/%B) 0/1 1/1 2/39 13/99.9 15/99.9 15.1/1 20.1/1
Conditions: stereoisomer not certain

COC(=O)c1ccccc1S(=O)(=O)NC(=O)N(C)c1nc(C)nc(OC)n1 [Tribenuron-methyl]
LC retention time: 7.94 min

CCOP(=O)(NC(C)C)Oc1ccc(S(C)(=O)=O)c(C)c1 (configuration not stated) [Fenamiphos - sulfone]
LC retention time: 7.21 min

N#CCNC(=O)c1cnccc1C(F)(F)F [Flonicamid]
LC retention time: 4.22 min

CC(=O)CC(c1ccccc1)c1c(O)c2ccccc2oc1=O (configuration not stated) [Warfarin]
LC retention time: 9.35 min

CC(CC(=O)Nc1ccc(Cl)cc1Cl)N1CCCCC1 (configuration not stated) [Clibucaine]
LC retention time: 6.27 min

CC1(C)C(C(=O)c2cn(CCN3CCOCC3)c3ccccc23)C1(C)C [A-796.260]
LC retention time: 10.7 min

COP(=O)(OC)OC1=C(Cl)C2CC=CC12 (configuration not stated) [Heptenophos]
LC retention time: 8.49 min

CN(C)CCC=C1c2ccccc2C(C)(C)c2ccccc21 [Melitracen]
LC retention time: 8.79 min

CCOc1ccc2c3c1OC1C(O)C=CC4C(C2)N(C)CCC341 (configuration not stated) [Morphine-Ethyl]
LC retention time: 4.08 min

COc1ccc(CC(C)NCC(O)c2ccc(O)c(NC=O)c2)cc1 (configuration not stated) [Formoterol]
LC retention time: 4.79 min

CCCNCCOc1c(Cl)cc(Cl)cc1Cl
LC retention time: 6.99 min

COc1cc(CC(C)N)c(OC)cc1Br (configuration not stated) [DOB]
LC retention time: 5.93 min

NC(=O)c1c(Cl)cccc1Cl [Dichlorobenzamide]
LC retention time: 4.48 min

CCN(CC)C(=O)SCc1ccc(Cl)cc1 [Thiobencarb]
LC retention time: 11.4 min

CCC(C)C1OC2(C=CC1C)CC1CC(CC=C(C)C(OC3CC(OC)C(OC4CC(OC)C(NC)C(C)O4)C(C)O3)C(C)C=CC=C3COC4C(O)C(C)=CC(C(=O)O1)C34O)O2 (configuration not stated) [Emamectin B1a]
LC retention time: 12.4 min

CCC(C)C(=O)OC1CC(O)C=C2C=CC(C)C(CCC(O)CC(O)CC(=O)O)C21 (configuration not stated) [Pravastatin]
LC retention time: 8.36 min

COc1ccc2[nH]cc(CC(C)N)c2c1 (configuration not stated) [MeO-AMT (5-)]
LC retention time: 4.36 min

CCSc1ccc2c(c1)N(CCCN1CCN(C)CC1)c1ccccc1S2 [Thiethylperazine]
LC retention time: 10.4 min

CN(C)c1ccccc1 [Dimethylanilin (N.N-)]
LC retention time: 6.26 min

Cc1nn(C)c(OCC(=O)c2ccccc2)c1C(=O)c1ccc(Cl)cc1Cl [Pyrazoxyfen]
LC retention time: 10.9 min

CN1CCN(C2=Nc3ccccc3Sc3ccc(Cl)cc32)CC1 [Clothiapine]
LC retention time: 8.96 min

O=C(Nc1cccc(Cl)c1)OCC#CCCl [Barban]
LC retention time: 9.74 min

CCCCCCC(C)(C)c1ccc(C2CCCC(O)C2)c(O)c1 (configuration not stated) [CP 47-497]
LC retention time: 13.1 min

CNC(C)C(=O)c1ccc(C)c(C)c1 (configuration not stated) [DMMC (3-4-)]
LC retention time: 5.23 min

N#CN=C1SCCN1Cc1ccc(Cl)nc1 [Thiacloprid]
LC retention time: 5.62 min

Cc1cc2c(OCC(O)CNC(C)C)cccc2[nH]1 (configuration not stated) [Mepindolol]
LC retention time: 4.44 min

N=C1NC(=O)C(c2ccccc2)O1 (configuration not stated) [Pemoline]
LC retention time: 4.34 min

C=C1CC(=CC)C(=O)OC2CC[N+]3([O-])CC=C(COC(=O)C1(C)O)C23 (configuration not stated) [Seneciphylline-N-oxide]
LC retention time: 4.5 min

CC(C)OC(=O)NC(C(=O)NC(C)c1nc2ccc(F)cc2s1)C(C)C (configuration not stated) [Benthiavalicarb-isopropyl]
LC retention time: 9.48 min

COCc1c(C(C)C)nc(C(C)C)c(C=CC(O)CC(O)CC(=O)O)c1-c1ccc(F)cc1 (configuration not stated) [Cerivastatin]
LC retention time: 11.6 min

COC(=O)NS(=O)(=O)c1ccc(N)cc1 [Asulam]
LC retention time: 3.41 min

CN(C)CCCC1(c2ccc(F)cc2)OCc2cc(C#N)ccc21 (configuration not stated) [Citalopram]
LC retention time: 6.59 min

C=CCc1ccccc1OCC(O)CNC(C)C (configuration not stated) [Alprenolol]
LC retention time: 6.71 min

COc1ccc(C(=O)c2cn(CCCCC(=O)O)c3ccccc23)cc1 [RCS-4-M-5-COOH-Pentyl]
LC retention time: 8.81 min

CCCCCCCCCC[N+](C)(C)CCCCCCCCCC [Didecyldimethylammonium (DADMAC (C10:C10))]
LC retention time: 12.6 min

C#CC(C)(C)NC(=O)c1cc(Cl)cc(Cl)c1 [Propyzamide (Pronamide)]
LC retention time: 9.69 min

Cc1cnc2c(C(=O)O)c(Cl)ccc2c1 [Quinmerac]
LC retention time: 4.75 min

CCCCCn1cc(C(=O)c2ccc(Cl)c3ccccc23)c2ccccc21 [JWH-398]
LC retention time: 13.3 min

O=C(O)C(c1ccccc1Cl)N1CCc2sccc2C1 (configuration not stated) [Clopidogrel Carbon acid]
LC retention time: 5.56 min

CCCCCc1cc(O)c2c(c1)OC(C)(C)c1ccc(C)cc1-2 [Cannabinol]
LC retention time: 13.7 min

CNCC1CCCCC1(O)c1cccc(OC)c1 (configuration not stated) [Tramadol-Nor (Tramadol-N-desmethyl)]
LC retention time: 5.3 min

Cc1cc(=O)[nH]c(C(C)C)n1 [Pyrimidinol]
LC retention time: 4.49 min

CCOc1nc2cccc(C(=O)OC(C)OC(=O)OC3CCCCC3)c2n1Cc1ccc(-c2ccccc2-c2nn[nH]n2)cc1 (configuration not stated) [Candesartan cilexetil]
LC retention time: 12.2 min

O=[N+]([O-])c1ccc(Oc2ccc(Cl)cc2Cl)cc1 [Nitrofen]
LC retention time: 12.1 min

C=C(C)C1Cc2c(ccc3c2OC2COc4cc(OC)c(OC)cc4C2C3=O)O1 (configuration not stated) [Rotenone]
LC retention time: 10.5 min

COc1cc(N)c(Cl)cc1C(=O)NC1CCN(CCCOc2ccc(F)cc2)CC1OC (configuration not stated) [Cisapride]
LC retention time: 6.73 min

CC(C)(C)C(NC(=O)c1nn(Cc2ccc(F)cc2)c2ccccc12)C(N)=O (configuration not stated) [ADB-FUBINACA]
LC retention time: 10.3 min

CC1COCc2cc3c(cc21)C(C)(C)C(C)C3(C)C (configuration not stated) [Galaxolide]
LC retention time: 13.9 min

CCCCCOC(=O)Nc1nc(=O)n(C2OC(C)C(O)C2O)cc1F (configuration not stated) [Capecitabin]
LC retention time: 7.59 min

CN(C)C(=N)N=C(N)N [Metformin]
LC retention time: 1.39 min

COC(=O)c1ccccc1CS(=O)(=O)NC(=O)Nc1nc(OC)cc(OC)n1 [Bensulfuron-methyl]
LC retention time: 8.77 min

O=C1NCN(c2ccccc2)C12CCN(CCCC(c1ccc(F)cc1)c1ccc(F)cc1)CC2 [Fluspirilen]
LC retention time: 9.19 min

CCCc1nn(C)c2c(=O)[nH]c(-c3cc(C(=O)CN4CCN(C)CC4)ccc3OCC)nc12 [Acetildenafil-Nor]
LC retention time: 6.99 min

CSc1nc2ccccc2s1 [Benzothiazole- 2-Me-S]
LC retention time: 9.79 min

Cc1ccc(C2(O)CCN(CCCC(=O)c3ccc(F)cc3)CC2)cc1 [Moperone]
LC retention time: 6.59 min

C1COC(NC(C2CC2)C2CC2)=N1 [Rilmenidine]
LC retention time: 4.4 min

CN(C)CCC(c1ccc(Cl)cc1)c1ccccn1 (configuration not stated) [Chlorpheniramine]
LC retention time: 6.25 min

CCOP(=S)(OCC)Oc1nc(Cl)c(Cl)cc1Cl [Chlorpyriphos]
LC retention time: 12.7 min

COc1ccc2[nH]cc(CCN(C)C)c2c1 [MeO-DMT (5-)]
LC retention time: 3.98 min

CN(C)S(N)(=O)=O [N,N-Dimethylsulfamide]
LC retention time: 2.02 min

CCc1c(C(=O)NCCc2ccc(N3CCCCC3)cc2)[nH]c2ccc(Cl)cc12
LC retention time: 12.7 min

COCC1CN=C(c2ccccc2Cl)c2cc(Br)ccc2N1C (configuration not stated) [Metaclazepam]
LC retention time: 11.6 min

CC(C)(C)NCC(O)c1ccccc1Cl (configuration not stated) [Tulobuterol]
LC retention time: 5.17 min

CSc1nc(N=[N+]=[N-])nc(NC(C)C)n1 [Aziprotryne]
LC retention time: 9.71 min

CC(N)Cc1cccc(C(F)(F)F)c1 (configuration not stated) [Fenfluramine-Nor]
LC retention time: 5.91 min

CN(C)S(=O)(=O)Nc1ccccc1 [DMSA (N N-Dimethylaminosulfanilide)]
LC retention time: 6.28 min

COc1ccc(C(=O)c2cn(CCCCCO)c3ccccc23)cc1 [RCS-4-M-5-OH-Pentyl]
LC retention time: 9.18 min

CCCCCCCCCCCCCCCC[N+](C)(C)C [Hexadecyltrimethylammonium]
LC retention time: 12.9 min

CC(C(=O)c1ccccc1)N(C)C (configuration not stated) [Cathinone-Dimethyl]
LC retention time: 3.64 min

CCOP(=O)(OCC)SCSCC [Phorate-oxon]
LC retention time: 8.6 min

CC(C)OC(=O)C(C)(C)Oc1ccc(C(=O)c2ccc(Cl)cc2)cc1 [Fenofibrate]
LC retention time: 12.6 min

CC(C)(C)c1ccc(C(=O)CCCN2CCC(OC(c3ccccc3)c3ccccc3)CC2)cc1 [Ebastine]
LC retention time: 10.9 min

CN1CCC(=C2c3ccccc3CC(=O)c3sccc32)CC1 [Ketotifen]
LC retention time: 5.54 min

CC(=O)Nc1ccc(OCC(O)CNC(C)C)cc1 (configuration not stated) [Practolol]
LC retention time: 3.34 min

Cc1c(NC(C)C)c(=O)n(-c2ccccc2)n1C [Ramifenazone]
LC retention time: 5.72 min

CCOP(=S)(OCC)SCSP(=S)(OCC)OCC [Ethion]
LC retention time: 12.4 min

CN(C)CCCN1c2ccccc2Sc2ccc(C(F)(F)F)cc21 [Triflupromazine]
LC retention time: 9.27 min

CNC(CC(C)C)C1(c2ccc(Cl)cc2)CCC1 (configuration not stated) [Sibutramine-Nor]
LC retention time: 8.68 min

CC(C)(Oc1ccc(C(=O)c2ccc(Cl)cc2)cc1)C(=O)O [Fenofibric acid]
LC retention time: 9.68 min

CC12CCC(=O)C=C1CCC1C2C(O)CC2(C)C(C(=O)CO)CCC12 (configuration not stated) [Corticosterone]
LC retention time: 8.74 min

CN(C)c1nc(=O)n(C2CCCCC2)c(=O)n1C [Hexazinone]
LC retention time: 7.09 min

CN1CCN2c3ncccc3Cc3ccccc3C2C1 (configuration not stated) [Mirtazapine]
LC retention time: 5.29 min

CC1(C)C(C(=O)c2nn(CCCCCF)c3ccccc23)C1(C)C [FAB-144]
LC retention time: 12.7 min

CCOc1cc(OP(=S)(OC)OC)nc(CC)n1 [Etrimfos]
LC retention time: 11 min

CNC(=O)C(=NOC)c1ccccc1COc1cc(C)ccc1C [Dimoxystrobin]
LC retention time: 10.7 min

OC(Cn1cncn1)(c1ccc(F)cc1)c1ccccc1F (configuration not stated) [Flutriafol]
LC retention time: 8.12 min

CCCCCn1cc(C(=O)c2cccc3ccccc23)c2ccc(O)cc21 [JWH-018-M-6-OH-Ind]
LC retention time: 11.2 min
